In patent US20240076272A1, “Activators of Heme Regulated Inhibitor Kinase (HRI)” (The Brigham and Women`s Hospital, Inc., priority 2019, published 2024):

Columns and labels:
[1] = system: human melanoma CRL-2813 cells; assay: sulforhodamine B (SRB) cell proliferation assay; type: cell-based; settings: Homo sapiens, CRL2813, 120 h, 5 days, read-out: IC50 (concentration that inhibits growth of human melanoma CRL-2813 cells by 50%)
Protocol: Cells were seeded in 96-well plates and maintained for 5 days in the presence of 0.5 μM to 20 μM of individual compound, and cell proliferation was measured by the sulforhodamine B (SRB) assay according to previous reports (see e.g., Palakurthi et al, Cancer Res. 60 (2000) 2919-2925): briefly, at the end of a 5-day treatment, cells were fixed in 10% cold trichloroacetic acid. Cell number was estimated by measuring the remaining bound dye of sulforhodamine B after washing. The percentage of growth was calculated by using the equation: 100×[(T-T0)/(C-T0)], where T and C represent the absorbance in treated and control cultures at Day 5, and T0 at time zero, respectively. If T was less than T0, cell death had occurred and was calculated from 100×[(T-T0)/T0].
All 4-CF3-ΦOcAlkΦUs were tested in the sulforhodamine B (SRB) cell proliferation assay to establish the concentrations that inhibit human melanoma CRL-2813 cells growth by 50% (IC50) (see Table 1). This activity reflects a combined effect of membrane permeability and overall anti-proliferative effects that include on target and off-target effects.

[2] = system: eIF2α phosphorylation (ATF-4 5′UTR luciferase reporter); assay: surrogate eIF2α phosphorylation dual-luciferase reporter (DLR) assay; type: cell-based; settings: for fold induction at 1.25 µM / fold induction at 5 µM / Fold stimulation of ATF-4 Surrogate eIF2α @ 1.25 μM: F/R luciferase ratio normalized to DMSO wells (F/R=1); for fold induction at 1.25 µM: read-out: Fold stimulation of ATF-4 Surrogate eIF2α @ 1.25 μM; for fold induction at 5 µM: read-out: Fold stimulation of ATF-4 Surrogate eIF2α @ 5 μM
Excerpt: The dual luciferase expression vector and other plasmids used in the Examples provided herein have been previously reported (see e.g., Ziegeler et al, J. Biol. Chem. 285 (2010) 15408-15419). The dual luciferase surrogate eIF2α phosphorylation assay, has also been previously reported (see e.g., Chen et al, Nat. Chem. Biol. 7 (2011) 610-616). Briefly, a dual Renilla and Firefly luciferase mammalian reporter vector that transcribes both mRNAs from the same bi-directional enhancer/promoter complex was utilized for generation of surrogate eIF2α phosphorylation assay (see e.g., Ziegeler et al, J. Biol. Chem. 285 (2010) 15408-15419). Both mRNAs contained the same 90 nucleotide plasmid derived 5′UTR. In addition, 5′UTR of the Firefly luciferase open reading frame was fused in-frame to the 267 nucleotide ATF-4 5′UTR (see e.g., Chen et al, Nat. Chem. Biol. 7 (2011) 610-616).
Cells expressing firefly and renilla luciferases were assayed with a dual glow luciferase assay kit, per manufacturer's instruction (Promega Inc., Madison, WI). The data calculations were carried out as the ratio of firefly to renilla luciferase signal (see e.g., Ziegeler et al, J. Biol. Chem. 285 (2010) 15408-15419). Dose-response curves were obtained, and triplicate data points were fitted to the logistical sigmoidal model using nonlinear least-squares regression performed in GraphPad Prism 6.
All newly synthesized N,N′-disubstituted ureas were initially evaluated by testing in the surrogate eIF2α phosphorylation dual-luciferase reporter (DLR) assay (see e.g., Chen et al, Nat. Chem. Biol. 7 (2011) 610-616; and Ziegeler et al, J. Biol. Chem. 285 (2010) 15408-15419). Briefly, this assay takes advantage of the fact that activated HRI phosphorylates eIF2α which inhibits eIF2 guanine nucleotide exchange factor eIF2B, responsible for exchanging the GDP in the eIF2·GDP complex for GTP. The reduction in the recycling of eIF2·GDP into eIF2·GTP interferes with the formation of eIF2·GTP·Met-tRNAi ternary complex. […] These include mRNA coding for activating transcription factor 4 (ATF-4) (see e.g., Aktas et al, Oncotarget, 4 (2013) 1606-1617; Aktas et al, Oncotarget, 6 (2015) 6902-6914; and Aktas et al, Proc. Natl. Acad. Sci. U.S.A. 95 (1998) 8280-8285).
In the present assay, firefly (F) luciferase mRNA was fused to the 5′UTR of ATF-4 mRNA that had multiple uORFs, while renilla (R) luciferase mRNA was fused to a 5′UTR lacking any uORFs. Agents that reduce the amount of the eIF2·GTP·Met-tRNAi ternary complex, such as N,N′-disubstituted ureas that activate HRI, increase F luciferase expression while reducing the R luciferase expression, resulting in an increased F/R luciferase ratio. The ureas of the present application were tested at 10 μM, 5 μM, 2.5 μM, and 1.25 μM concentrations in 96-well assay plates (see e.g., Chen et al, Nat. Chem. Biol. 7 (2011) 610-616; and Bai et al, ChemBioChem, 14 (2013) 1255-1262). The activity scores as the F/R ratios were calculated for every compound-treated well and normalized to F/R ratio of vehicle-treated (DMSO) wells in the same plate, arbitrarily set at 1 (F/R=1). Data obtained in the surrogate dual-luciferase eIF2α phosphorylation (DLR) assay for the series of 1-phenyl-3/4-(4-trifluorometyl) phenoxy-cycloalkyl)ureas (4-CF3-ΦcAlkΦUs) and 1-phenyl-3-(5-(4-(trifluoromethyl) phenoxy)pyrimidin-2-yl)ureas (4-CF3-ΦOPyΦUs) described herein are shown in Tables 1-2.

[3] = system: CHOP; assay: Western blot, CHOP expression in CRL-2813 cells; type: cell-based, human; settings: 5 μM, 8 hours, Western blot (FIG. 2B)
Protocol: (§1) FIGS. 2A-2B show HRI activators of the present application induce eIF2α phosphorylation and modify its downstream effectors. In FIG. 2A, CRL-2813 cells were treated with 5 μM of each compound for 2 hours, cell lysates were probed with phosphorylated (P-eIF2α) and total eIF2α (T-eIF2α) and β-actin specific antibodies. In FIG. 2B, CRL-2813 cells were treated with 5 μM HRI activators for 8 hours and lysates were immunoblotted with antibodies against CHOP, p27^KiPl, cyclin D1 and β-actin.
(§2) Cells cultured under recommended media conditions were plated and maintained in serum-containing media without antibiotics in 14-cm plates (Nunc) until reaching 70% confluence. Cells were then treated with compounds for 6 h, washed with cold PBS once, and lysed with M-PER Mammalian Protein Extraction Reagent (Pierce) for 30 min on ice. The cell lysates were centrifuged at 12,000 RPM for 15 min and the supernatants were transferred to fresh tubes and the concentrations were determined by BCA (Pierce). Equal amount of proteins were mixed with Laemmli Sample Buffer, heated at 100° C. for 5 min, separated by SDS-PAGE, and probed with anti-phosphoserine-51-eIF2α (Phos-eIF2α), anti-total eIF2α-specific antibodies (Total-eIF2α) (Biosource International, Hopkinton, MA), anti-CHOP, anti-cyclin D1 or anti-actin (Santa Cruz Biotechnology, CA) using procedures substantially similar to previous reports (see e.g., Aktas et al, Mol. Cell. Biol. 17 (1997) 3850-3857).
(§3) Endogenous eIF2α is the best-known substrate of HRI and the upstream regulator of the eIF2·GTP·Met-tRNAi ternary complex abundance, while CHOP expression is a downstream effector of eIF2α phosphorylation. For assessing eIF2α phosphorylation, blotted cell lysates were treated for two hours with vehicle or selected compounds using antibodies specific for the total-eIF2α and the phosphorylated-eIF2α (T-eIF2α and [PhoS^51]-eIF2α), respectively (see e.g., Aktas et al, J. Nutr. 134 (2004) 2487S-2491S) (see FIG. 2A).

[4] = system: cyclin D1; assay: Western blot, cyclin D1 expression in CRL-2813 cells; type: cell-based, human; settings: 5 μM, 8 hours, Western blot (FIG. 2B)
Protocol: as §1, §2, §3

[5] = system: endogenous eIF2α; assay: Western blot, phosphorylation of endogenous eIF2α in CRL-2813 cells; type: cell-based, human; settings: 5 μM, 2 hours, Western blot (FIG. 2A)
Protocol: as §1
Cells cultured under recommended media conditions were plated and maintained in serum-containing media without antibiotics in 14-cm plates (Nunc) until reaching 70% confluence. Cells were then treated with compounds for 6 h, washed with cold PBS once, and lysed with M-PER Mammalian Protein Extraction Reagent (Pierce) for 30 min on ice. The cell lysates were centrifuged at 12,000 RPM for 15 min and the supernatants were transferred to fresh tubes and the concentrations were determined by BCA (Pierce). […]

Row | SMILES | IC50 [1] [nM] | melting point [°C] | fold induction at 1.25 µM [2] | fold induction at 5 µM [2] | expression of CHOP relative to DMSO [3] | expression of cyclin D1 relative to DMSO [4] | Fold stimulation of ATF-4 Surrogate eIF2α @ 1.25 μM [2] [fold] | activity in the DLR assay (in words) [2] | phosphorylation of endogenous eIF2α [5]
1 | O=C(Nc1cccc(F)c1F)N[C@H]1CC[C@H](Oc2ccc(C(F)(F)F)cc2)CC1 [Compound 11-VI, 1-(2,3-Difluorophenyl)-3-(trans-4-(4-(trifluoromethyl)phenoxy)cyclohexyl)urea] | 1600 ± 2000 | 227.3 to 229.9 | 4.7 ± 1 | 9.9 ± 1.3 | increased the expression of CHOP | decreased the expression of cyclin D1 |  |  | 
2 | Cc1ccc(F)cc1NC(=O)N[C@H]1CC[C@H](Oc2ccc(C(F)(F)F)cc2)CC1 [Compound 7-VI, 1-(5-Fluoro-2-methylphenyl)-3-(trans-4-(4-(trifluoromethyl)phenoxy)cyclohexyl)urea] | 5300 ± 1800 | 238.2 to 239.8 | 1.8 ± 0.8 | 1.5 ± 0.4 | increased the expression of CHOP | decreased the expression of cyclin D1 |  |  | 
3 | N#Cc1cc(NC(=O)N[C@H]2C[C@@H](Oc3ccc(C(F)(F)F)cc3)C2)cc(C(F)(F)F)c1 [Compound 1-IVc, 1-(3-Cyano-5-(trifluoromethyl)phenyl)-3-(cis-3-(4-(trifluoromethyl)phenoxy)cyclobutyl)urea] | 900 | 194.6 to 196.1 | 4.3 | 8.4 ± 0.5 |  |  | 4.3 ± 0.6 |  | 
4 | N#Cc1cccc(NC(=O)N[C@H]2C[C@@H](Oc3ccc(C(F)(F)F)cc3)C2)c1 [Compound 3-IVc, 1-(3-Cyanophenyl)-3-(cis-3-(4-(trifluoromethyl)phenoxy)cyclobutyl)urea] | > 10000 | 203.7 to 206.8 | 1.1 | 0.9 ± 0.1 |  |  | 1.1 ± 0.2 |  | 
5 | O=C(Nc1cccc(F)c1F)N[C@H]1C[C@H](Oc2ccc(C(F)(F)F)cc2)C1 [Compound 11-IV, 1-(2,3-Difluorophenyl)-3-(trans-3-(4-(trifluoromethyl)phenoxy)cyclobutyl)urea] | 2300 ± 900 | 205.9 to 208 | 0.8 ± 0.1 | 6.2 ± 2.7 |  |  |  |  | 
6 | N#Cc1cc(F)cc(NC(=O)N[C@H]2C[C@H](Oc3ccc(C(F)(F)F)cc3)C2)c1 [Compound 4-IV, 1-(3-Cyano-5-fluorophenyl)-3-(trans-3-(4-(trifluoromethyl)phenoxy)cyclobutyl)urea] | 2800 ± 1300 | 182.8 to 185 | 2 ± 0.4 | 5.3 ± 0.6 |  |  |  |  | 
7 | O=C(Nc1ccc(F)c(F)c1)N[C@H]1CC[C@H](Oc2ccc(C(F)(F)F)cc2)CC1 [Compound 10-VI, 1-(3,4-Difluorophenyl)-3-(trans-4-(4-(trifluoromethyl)phenoxy)cyclohexyl)urea] | 1300 ± 300 | 228.2 to 229.8 | 2.9 ± 0.7 | 5.6 ± 1.2 |  |  |  |  | 
8 | N#Cc1cccc(NC(=O)N[C@H]2CC[C@H](Oc3ccc(C(F)(F)F)cc3)C2)c1 [Compound 3-V] | 6500 ± 2300 | 160.2 to 162.1 | 0.8 ± 0.2 | 1.6 ± 0.2 |  |  |  |  | 
9 | N#Cc1ccc(F)c(NC(=O)N[C@H]2CC[C@H](Oc3ccc(C(F)(F)F)cc3)CC2)c1 [Compound 6-VI, 1-(5-Cyano-2-fluorophenyl)-3-(trans-4-(4-(trifluoromethyl)phenoxy)cyclohexyl)urea] | > 10000 | 234.6 to 237 | 1 ± 0.3 | 1.5 ± 0.5 | did not increase expression of CHOP | did not inhibit the expression of cyclin D1 |  | inactive | least active
